Assay results reported in patent US8263754B2, “Amphiphiles for protein solubilization and stabilization” (Wisconsin Alumni Research Foundation, priority 2008, dated 2012).

Assays:
[1] = Critical micelle concentration (CMC) by dye solubilization (Orange OT or DPH); format: physicochemical; conditions: for critical micelle concentration (CMC): aqueous solubilization of Orange OT; for CMC / CMC (%): determined by DPH (diphenylhexatriene) or Orange OT
From the text: Aqueous solubilization of Orange OT was used to determine critical micelle concentrations (CMC). […] Facile self-association of these amphiphiles under these conditions may be hindered by the hydrophilicity and/or steric bulk of the triglucoside and dimaltoside headgroups.
The Critical Micelle Concentrations (CMCs) of compounds of the invention can be determined by standard techniques known to those of skill in the art. For example, CMCs of the carbohydrate-based amphiphiles described herein can be determined by monitoring uptake of a dye (e.g., Orange OT or 1,6-diphenylhexatriene) with increasing detergent concentration, monitored by UV-visible or fluorescence spectroscopy.

[2] = system: LHI-RC superassembly in Rhodobacter capsulatus membranes; conditions: for extraction of LHI-RC superassembly from R. capsulatus membranes: solubilized protein, optical spectroscopy; for Level (S/P solubilization rank and detergent strength): detergent at 10x CMC, 30 minutes at 32° C.
From the text: These complexes, normally embedded in the bacterial membrane, are highly pigmented and several outcomes from an assay are possible, including no degradation, partial degradation or complete degradation upon solubilization, or no solubilization. Thus, graded comparative evaluations could be obtained for a set of candidates such as the amphiphiles described herein.
In the engineered strain of R. capsulatus employed, the photosynthetic unit was comprised of a very labile LHI complex and a more resilient RC complex. An ideal amphiphile for this system will extract the intact LHI-RC superassembly from a bacterial membrane preparation and maintain the natural interactions among the components. Amphiphiles with a more disruptive effect will dissociate and denature LHI, leaving only intact RC, and even harsher amphiphiles will cause RC degradation. Each of these various outcomes can be assessed unambiguously via optical spectroscopy (FIG. 2 inset).
Measurements. The starting material for the screening protocols and stability measurements included specialized photosynthetic membranes from an engineered strain of Rhodobacter (R.) capsulatus, U43[pUHTM86Bgl]
To begin the solubilization and purification process, frozen aliquots of R. capsulatus membranes were thawed, homogenized, and equilibrated to 32° C. for 30 minutes. […] For subsequent experiments, the amphiphiles were evaluated at 10-fold CMC during the solubilization step.
The membrane samples were allowed to incubate with the amphiphile for 30 minutes at 32° C. The solubilized material was then separated from the membrane debris in an ultracentrifuge at 315,000×g at 4° C. for 30 minutes. […] After a UV-Vis-nearIR absorption spectrum was recorded, the resuspended pellet was discarded. […] The tubes were then incubated and inverted for 1 hour at 4° C.
Once binding was complete, samples were loaded onto resin-retaining spin columns (e.g., emptied His Spin Trap™ columns; GE Healthcare). The columns were then inserted into a 2 mL microcentrifuge tube to retain the filtered solution during centrifugation. […] Finally, protein was eluted into a fresh microcentrifuge tube with three 0.2 mL elution buffer aliquots (this buffer was identical to binding buffer with the addition of 1 M imidazole).
The R. capsulatus LHI-RC complexes extracted and purified by this procedure contain large numbers of cofactors that have absorptions at distinct wavelengths, and each component of the LHI-RC superassembly has a different inherent stability outside the lipid bilayer. The solubilization protocol outlined above therefore provides a multifaceted assessment of the efficacy of conventional detergents and novel amphiphiles. UV-Vis absorption spectroscopy data obtained at various stages of the protocol allow one to determine which protein components have degraded at these stages. […] The disruption potential was measured as the yield of superassembly extracted during solubilization (or, alternatively and more precisely, as the absence of superassembly in the pellet from the spin following solubilization).
The stabilizing propensity was determined from the spectra of the purified protein. An amphiphile was judged to be mild and stabilizing if it allowed the purification of fully intact LHI-RC superassembly (dominant absorption band at 875 nm). […] An amphiphile was judged to be of intermediate strength if it allowed for the purification of fully intact RC with damaged or missing LHI (dominant absorption at 800 nm with a shoulder at 875 nm; damaged LHI still bound to RC absorbs at 760 nm).
First, solubilization (illustrated in “STEP 1” of FIG. 12) denotes the ability of a surfactant to penetrate, integrate and disrupt a lipid bilayer.

CCCCCCCCCCCCC(=O)NC(CO[C@@H]1O[C@H](CO)[C@@H](O)[C@H](O)[C@H]1O)(CO[C@@H]1O[C@H](CO)[C@@H](O)[C@H](O)[C@H]1O)CO[C@@H]1O[C@H](CO)[C@@H](O)[C@H](O)[C@H]1O [MPA3]
critical micelle concentration (CMC) [1]: 4.4 mM | CMC [1]: 4.4 mM | CMC (%) [1]: 0.35% | extraction of LHI-RC superassembly from R. capsulatus membranes [2]: did not extract any protein

OCC1O[C@H](OCC23CC4CC(CC(C4)C2)C3)[C@H](O)C(O)[C@H]1O (stereo partly drawn) [TPA 42]
Level (S/P solubilization rank and detergent strength) [2]: insoluble

CCCCCCCCCCCCC(=O)NC(CO[C@@H]1O[C@H](CO)[C@@H](O)[C@H](O)[C@H]1O)CO[C@@H]1O[C@H](CO)[C@@H](O)[C@H](O)[C@H]1O [C12-MPA2]
critical micelle concentration (CMC) [1]: 2.4 mM | CMC [1]: 2.4 mM | CMC (%) [1]: 0.15% | yield of membrane protein complexes purified by affinity chromatography ([2]; after extraction from R. capsulatus membranes): far greater yield | membrane protein complexes in the sample extracted ([2]; intracytoplasmic membranes of R. capsulatus): ~30% | extraction of LHI-RC superassembly from R. capsulatus membranes [2]: extracted a moderate amount of intact LHI-RC superassembly

CCCCC(CCCC)(CC(=O)NC(CO[C@@H]1O[C@H](CO)[C@@H](O)[C@H](O)[C@H]1O)(CO[C@@H]1O[C@H](CO)[C@@H](O)[C@H](O)[C@H]1O)CO[C@@H]1O[C@H](CO)[C@@H](O)[C@H](O)[C@H]1O)c1ccc(-c2ccccc2)cc1 [TPA13]
CMC [1]: 3.7 mM | CMC (%) [1]: 0.34%

O=C(CC1(C2CCCCC2)CCCCCCC1)NC(CO[C@@H]1O[C@H](CO)[C@@H](O)[C@H](O)[C@H]1O)CO[C@@H]1O[C@H](CO)[C@@H](O)[C@H](O)[C@H]1O [TPA 54]
CMC [1]: 4.5 mM | CMC (%) [1]: 0.29%

CC12CC3CC(C)(C1)CC(CC(=O)NCCO[C@H]1OC(CO)[C@H](O[C@@H]4OC(CO)[C@H](O)C(O)[C@H]4O)C(O)[C@H]1O)(C3)C2 (stereo partly drawn) [TPA 44]
CMC [1]: 19.1 mM | CMC (%) [1]: 1.1%

O=C(NCCOC1OC(CO)C(OC2OC(CO)C(O)C(O)C2O)C(O)C1O)C(c1ccccc1)c1ccccc1 (stereo not drawn) [DPA 68]
CMC [1]: 85.3 mM | CMC (%) [1]: 4.95%

CCCCC(CCCC)(CC(=O)NCCO[C@@H]1O[C@H](CO)[C@@H](O[C@H]2O[C@H](CO)[C@@H](O)[C@H](O)[C@H]2O)[C@H](O)[C@H]1O)c1ccccc1 [TPA4]
critical micelle concentration (CMC) [1]: 4.0 mM | CMC [1]: 4 mM | CMC (%) [1]: 0.25% | extraction of LHI-RC superassembly from R. capsulatus membranes [2]: extracts a significant proportion of the membrane-embedded protein

CCCCC(CCCC)(CC(=O)NC(COC1OC(CO)C(OC2OC(CO)C(O)C(O)C2O)C(O)C1O)COC1OC(CO)C(OC2OC(CO)C(O)C(O)C2O)C(O)C1O)c1ccc(-c2ccccc2)cc1 (stereo not drawn) [TPA15]
CMC [1]: 1.7 mM | CMC (%) [1]: 0.18%

CCCCCCCCCCCCCCCCC(=O)NC(CO[C@@H]1O[C@H](CO)[C@@H](O)[C@H](O)[C@H]1O)CO[C@@H]1O[C@H](CO)[C@@H](O)[C@H](O)[C@H]1O [C16-MPA2]
Level (S/P solubilization rank and detergent strength) [2]: insoluble

CCCCC(CCCC)(CC(=O)NC(CO[C@@H]1O[C@H](CO)[C@@H](O)[C@H](O)[C@H]1O)CO[C@@H]1O[C@H](CO)[C@@H](O)[C@H](O)[C@H]1O)c1ccc(I)cc1 [TPA 28]
CMC [1]: 0.89 mM | CMC (%) [1]: 0.07%

CCCCCC(CC(=O)NC(CO[C@@H]1O[C@H](CO)[C@@H](O)[C@H](O)[C@H]1O)CO[C@@H]1O[C@H](CO)[C@@H](O)[C@H](O)[C@H]1O)(C1CCCCC1)C1CCCCC1 [TPA 73]
CMC [1]: 0.21 mM | CMC (%) [1]: 0.014%

CCCCCC[C@]1(CC(=O)NC(CO[C@H]2OC(CO)[C@H](O)C(O)[C@H]2O)CO[C@H]2OC(CO)[C@H](O)C(O)[C@H]2O)C2C[C@@H]3C[C@H](C2)C[C@@H]1C3 (stereo partly drawn) [TPA 52]
CMC [1]: 1.1 mM | CMC (%) [1]: 0.075%

O=C(CC1(C2CCCCC2)CCCCCC1)NC(CO[C@@H]1O[C@H](CO)[C@@H](O)[C@H](O)[C@H]1O)CO[C@@H]1O[C@H](CO)[C@@H](O)[C@H](O)[C@H]1O [TPA 53]
CMC [1]: 13.8 mM | CMC (%) [1]: 0.88%

O=C(CC1(C2CCCCC2)CCCCC1)NC(CO[C@@H]1O[C@H](CO)[C@@H](O)[C@H](O)[C@H]1O)CO[C@@H]1O[C@H](CO)[C@@H](O)[C@H](O)[C@H]1O [TPA 50]
CMC [1]: 19.2 mM | CMC (%) [1]: 1.19%

CCCCC(CCCC)(CC(=O)NC(CO[C@@H]1O[C@H](CO)[C@@H](O)[C@H](O)[C@H]1O)CO[C@@H]1O[C@H](CO)[C@@H](O)[C@H](O)[C@H]1O)CC(C)C [TPA25]
CMC [1]: 4.1 mM | CMC (%) [1]: 0.26%

CCCCC(CCCC)(CC(=O)NC(COC1OC(CO)C(O)C(O)C1O)COC1OC(CO)C(O)C(O)C1O)c1ccc(C)cc1 (stereo not drawn) [TPA 31]
CMC [1]: 2.4 mM | CMC (%) [1]: 0.16%

O=C(NCCO[C@@H]1O[C@H](CO)[C@@H](O[C@H]2O[C@H](CO)[C@@H](O)[C@H](O)[C@H]2O)[C@H](O)[C@H]1O)C(C1CCCCC1)C1CCCCC1 [DPA 69]
CMC [1]: 13.9 mM | CMC (%) [1]: 0.82%

CCCCC(CCCC)(CC(=O)NC(COC1OC(CO)C(O)C(O)C1O)COC1OC(CO)C(O)C(O)C1O)c1ccc(-c2ccccc2)cc1 (stereo not drawn) [TPA 34]
CMC [1]: 0.14 mM | CMC (%) [1]: 0.01%

OC[C@H]1O[C@@H](OCCC23CC4CC(CC(C4)C2)C3)[C@H](O)[C@@H](O)[C@@H]1O [TPA 43]
Level (S/P solubilization rank and detergent strength) [2]: insoluble

CCCCC(CCCC)(CC(=O)NC(CO[C@@H]1O[C@H](CO)[C@@H](O[C@H]2O[C@H](CO)[C@@H](O)[C@H](O)[C@H]2O)[C@H](O)[C@H]1O)CO[C@@H]1O[C@H](CO)[C@@H](O[C@H]2O[C@H](CO)[C@@H](O)[C@H](O)[C@H]2O)[C@H](O)[C@H]1O)C1CCCCC1 [TPA24]
CMC [1]: 1.9 mM | CMC (%) [1]: 0.19%

CCCCCCC(CCCCCC)(CC(=O)NC(CO[C@@H]1O[C@H](CO)[C@@H](O)[C@H](O)[C@H]1O)(CO[C@@H]1O[C@H](CO)[C@@H](O)[C@H](O)[C@H]1O)CO[C@@H]1O[C@H](CO)[C@@H](O)[C@H](O)[C@H]1O)c1ccccc1 [TPA17]
CMC [1]: 1.4 mM | CMC (%) [1]: 0.13%

CCCCCCC(CCCCCC)(CC(=O)NC(CO[C@@H]1O[C@H](CO)[C@@H](O[C@H]2O[C@H](CO)[C@@H](O)[C@H](O)[C@H]2O)[C@H](O)[C@H]1O)CO[C@@H]1O[C@H](CO)[C@@H](O[C@H]2O[C@H](CO)[C@@H](O)[C@H](O)[C@H]2O)[C@H](O)[C@H]1O)c1ccccc1 [TPA18]
CMC [1]: 0.3 mM | CMC (%) [1]: 0.03%

CC(C)(C)CC(C)(C)c1ccc(OCC(=O)NCCC[N+](C)(C)[O-])cc1 [Triton-N-oxide]
CMC [1]: 1.1 mM | CMC (%) [1]: 0.04%

CCCCC(CCCC)(CC(=O)NC(CO[C@@H]1O[C@H](CO)[C@@H](O[C@H]2O[C@H](CO)[C@@H](O)[C@H](O)[C@H]2O)[C@H](O)[C@H]1O)CO[C@@H]1O[C@H](CO)[C@@H](O[C@H]2O[C@H](CO)[C@@H](O)[C@H](O)[C@H]2O)[C@H](O)[C@H]1O)c1ccccc1 [TPA5]
extraction of LHI-RC superassembly from R. capsulatus membranes [2]: solubilized a small proportion of relatively intact LHI-RC superassembly

CCCCCCC(CCCCCC)(CC(=O)NC(CO[C@@H]1O[C@H](CO)[C@@H](O)[C@H](O)[C@H]1O)CO[C@@H]1O[C@H](CO)[C@@H](O)[C@H](O)[C@H]1O)c1ccccc1 [TPA 36]
CMC [1]: 0.56 mM | CMC (%) [1]: 0.04%

CCCCC(CCCC)(CC(=O)NC(COC1OC(CO)C(O)C(O)C1O)(COC1OC(CO)C(O)C(O)C1O)COC1OC(CO)C(O)C(O)C1O)c1ccccc1 (stereo not drawn) [TPA3]
extraction of LHI-RC superassembly from R. capsulatus membranes [2]: no protein is extracted from the membrane
